Laboratory results taken from ChEMBL document CHEMBL3769336, “Discovery of a Chemical Tool Inhibitor Targeting the Bromodomains of TRIM24 and BRPF” (J Med Chem, 2016).

Tests used:
[1] = target: T1, Peregrin (Homo sapiens, UniProt P55201); experiment: Inhibition of BRPF1B (unknown origin) by Alpha Screen assay
T1 sequence (P55201 whole entry): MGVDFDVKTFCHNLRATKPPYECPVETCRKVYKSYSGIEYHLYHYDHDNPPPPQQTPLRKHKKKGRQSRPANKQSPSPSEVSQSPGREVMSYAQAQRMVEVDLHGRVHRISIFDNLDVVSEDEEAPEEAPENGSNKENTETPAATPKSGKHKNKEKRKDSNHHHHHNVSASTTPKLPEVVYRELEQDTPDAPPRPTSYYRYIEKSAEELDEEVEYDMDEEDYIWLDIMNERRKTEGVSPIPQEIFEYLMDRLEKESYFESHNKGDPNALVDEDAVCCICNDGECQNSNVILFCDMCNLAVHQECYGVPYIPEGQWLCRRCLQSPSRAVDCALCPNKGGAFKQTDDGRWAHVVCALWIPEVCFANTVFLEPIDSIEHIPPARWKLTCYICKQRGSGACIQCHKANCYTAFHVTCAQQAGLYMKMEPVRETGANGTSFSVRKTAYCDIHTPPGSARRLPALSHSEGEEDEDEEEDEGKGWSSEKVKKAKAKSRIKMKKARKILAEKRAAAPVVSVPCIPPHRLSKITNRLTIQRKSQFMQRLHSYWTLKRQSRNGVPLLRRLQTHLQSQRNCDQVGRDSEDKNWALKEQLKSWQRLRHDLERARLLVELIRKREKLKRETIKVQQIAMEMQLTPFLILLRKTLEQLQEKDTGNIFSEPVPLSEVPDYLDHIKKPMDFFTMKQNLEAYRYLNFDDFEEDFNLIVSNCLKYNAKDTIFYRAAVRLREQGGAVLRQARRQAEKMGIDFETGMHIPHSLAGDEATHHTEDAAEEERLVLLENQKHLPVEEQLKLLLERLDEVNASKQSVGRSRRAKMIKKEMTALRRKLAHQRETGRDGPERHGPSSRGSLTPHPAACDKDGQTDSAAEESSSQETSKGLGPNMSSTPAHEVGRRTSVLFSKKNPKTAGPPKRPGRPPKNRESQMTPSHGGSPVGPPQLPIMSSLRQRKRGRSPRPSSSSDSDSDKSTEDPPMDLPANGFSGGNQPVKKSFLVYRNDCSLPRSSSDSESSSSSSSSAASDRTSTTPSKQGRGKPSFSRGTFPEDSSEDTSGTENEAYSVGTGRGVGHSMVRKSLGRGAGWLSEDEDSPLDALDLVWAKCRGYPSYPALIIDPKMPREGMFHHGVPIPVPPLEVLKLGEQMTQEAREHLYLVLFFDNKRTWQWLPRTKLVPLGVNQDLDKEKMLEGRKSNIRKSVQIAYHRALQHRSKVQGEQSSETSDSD

[2] = target: T2, Bromodomain-containing protein 1 (Homo sapiens, UniProt O95696); experiment: Inhibition of BRPF2 BRD1 (unknown origin) by Alpha Screen assay
T2 sequence (O95696 whole entry): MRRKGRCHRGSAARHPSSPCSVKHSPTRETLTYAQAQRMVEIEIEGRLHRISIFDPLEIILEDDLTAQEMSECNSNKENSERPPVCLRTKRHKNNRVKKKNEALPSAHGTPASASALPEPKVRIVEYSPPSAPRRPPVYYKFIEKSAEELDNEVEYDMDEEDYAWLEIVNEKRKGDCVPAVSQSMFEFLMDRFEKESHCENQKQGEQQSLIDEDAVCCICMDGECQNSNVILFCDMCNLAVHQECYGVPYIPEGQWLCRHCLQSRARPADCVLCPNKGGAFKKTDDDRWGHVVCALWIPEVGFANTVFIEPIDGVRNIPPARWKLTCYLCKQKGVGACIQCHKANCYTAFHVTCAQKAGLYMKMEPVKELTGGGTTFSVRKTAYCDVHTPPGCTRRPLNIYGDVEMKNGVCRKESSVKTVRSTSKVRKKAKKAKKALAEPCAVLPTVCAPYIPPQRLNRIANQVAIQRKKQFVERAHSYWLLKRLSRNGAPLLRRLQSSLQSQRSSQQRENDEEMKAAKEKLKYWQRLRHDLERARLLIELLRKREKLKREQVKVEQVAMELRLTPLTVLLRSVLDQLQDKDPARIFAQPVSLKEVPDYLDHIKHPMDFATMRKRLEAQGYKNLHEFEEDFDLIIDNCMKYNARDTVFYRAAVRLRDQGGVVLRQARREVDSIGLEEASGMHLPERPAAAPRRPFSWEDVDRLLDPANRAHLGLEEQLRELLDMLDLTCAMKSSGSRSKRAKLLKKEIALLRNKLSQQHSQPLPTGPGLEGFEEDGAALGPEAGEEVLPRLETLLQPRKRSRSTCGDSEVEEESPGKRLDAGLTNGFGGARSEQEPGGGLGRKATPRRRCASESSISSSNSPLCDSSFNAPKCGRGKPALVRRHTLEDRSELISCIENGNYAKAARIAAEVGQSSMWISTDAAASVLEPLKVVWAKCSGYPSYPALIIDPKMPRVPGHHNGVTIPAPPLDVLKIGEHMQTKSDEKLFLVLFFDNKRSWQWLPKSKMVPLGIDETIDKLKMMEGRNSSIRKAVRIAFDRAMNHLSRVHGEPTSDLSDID

[3] = target: T3, Transcription intermediary factor 1-alpha (Homo sapiens, UniProt O15164); experiment: Inhibition of N-terminal His6-SUMO-1-tagged recombinant human TRIM24 bromodomain expressed in Escherichia coli BL21(DE3)-R3-pRARE2 cells by Alpha Screen assay
T3 sequence (O15164 whole entry): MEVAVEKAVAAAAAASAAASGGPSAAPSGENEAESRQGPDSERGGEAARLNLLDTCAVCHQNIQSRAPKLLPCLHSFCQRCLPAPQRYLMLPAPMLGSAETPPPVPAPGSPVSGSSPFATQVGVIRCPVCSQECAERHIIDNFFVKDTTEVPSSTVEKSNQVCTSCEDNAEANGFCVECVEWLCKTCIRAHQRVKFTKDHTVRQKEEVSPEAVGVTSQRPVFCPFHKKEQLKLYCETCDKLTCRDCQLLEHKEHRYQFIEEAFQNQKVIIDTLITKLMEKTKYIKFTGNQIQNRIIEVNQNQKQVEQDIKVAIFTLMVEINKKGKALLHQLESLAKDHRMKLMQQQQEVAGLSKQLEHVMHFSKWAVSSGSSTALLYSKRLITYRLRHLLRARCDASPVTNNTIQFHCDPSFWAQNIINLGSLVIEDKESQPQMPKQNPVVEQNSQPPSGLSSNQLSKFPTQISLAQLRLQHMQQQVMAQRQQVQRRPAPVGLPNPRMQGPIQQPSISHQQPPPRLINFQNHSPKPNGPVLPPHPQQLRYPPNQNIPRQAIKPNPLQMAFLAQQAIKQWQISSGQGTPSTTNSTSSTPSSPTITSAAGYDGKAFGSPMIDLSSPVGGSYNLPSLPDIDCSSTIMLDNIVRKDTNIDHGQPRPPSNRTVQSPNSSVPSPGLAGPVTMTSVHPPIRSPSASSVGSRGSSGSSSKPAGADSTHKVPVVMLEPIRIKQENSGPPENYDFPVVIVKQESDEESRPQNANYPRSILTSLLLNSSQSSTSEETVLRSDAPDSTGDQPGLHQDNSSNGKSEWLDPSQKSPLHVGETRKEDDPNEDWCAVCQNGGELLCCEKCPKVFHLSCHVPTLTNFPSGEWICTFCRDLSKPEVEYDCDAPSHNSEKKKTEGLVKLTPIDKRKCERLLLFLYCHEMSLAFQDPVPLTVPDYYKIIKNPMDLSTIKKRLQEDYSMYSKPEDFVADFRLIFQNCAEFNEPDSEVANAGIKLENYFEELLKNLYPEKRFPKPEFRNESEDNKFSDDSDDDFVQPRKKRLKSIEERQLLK

| IC50 [1] | IC50 [2] | IC50 [3] | SMILES |
| --- | --- | --- | --- |
| 0.42 µM | 4.3 µM | 3.45 µM | CC(C)c1ccc(S(=O)(=O)Nc2ccc3c(c2)n(C)c(=O)n3C)cc1 |
| 1.17 µM | 2.39 µM | 2.45 µM | Cc1cc(Cl)ccc1S(=O)(=O)Nc1cc2c(cc1Oc1ccccc1)n(C)c(=O)n2C |
| 6.72 µM | > 10 µM | 8.4 µM | CCCOc1ccc(S(=O)(=O)Nc2cc3c(cc2Oc2ccc(OC)cc2)n(C)c(=O)n3C)cc1 |
| 0.29 µM | 1.21 µM | 0.48 µM | COc1ccc(S(=O)(=O)Nc2cc3c(cc2Oc2ccccc2)n(C)c(=O)n3C)cc1OC |
| 0.43 µM | 1.7 µM | 2.62 µM | Cc1ccccc1S(=O)(=O)Nc1cc2c(cc1Oc1ccccc1)n(C)c(=O)n2C |
| 0.27 µM | 3.47 µM | 1.56 µM | Cn1c(=O)n(C)c2cc(Oc3ccccc3)c(NS(=O)(=O)c3ccc(Cl)cc3)cc21 |
| 0.51 µM | 2.92 µM | 1.27 µM | Cc1ccc(S(=O)(=O)Nc2cc3c(cc2Oc2ccccc2)n(C)c(=O)n3C)cc1 |
| 2.24 µM | > 10 µM | 2.7 µM | COc1ccc(Oc2cc3c(cc2NS(=O)(=O)c2ccc(C)cc2)n(C)c(=O)n3C)cc1 |
| 1.4 µM | > 10 µM | > 10 µM | COC1(C)Oc2cc(S(=O)(=O)Nc3ccc4c(c3)n(C)c(=O)n4C)ccc2O[C@]1(C)OC (stereo not given in full) |

Second part, the molecule before the results:

| SMILES | IC50 [1] | IC50 [2] | IC50 [3] |
| --- | --- | --- | --- |
| Cn1c(=O)n(C)c2cc(NS(=O)(=O)c3ccc4c(c3)CCC(C)(C)O4)ccc21 | 0.31 µM | 2.46 µM | 3.69 µM |
| COc1ccc(Oc2cc3c(cc2NS(=O)(=O)c2ccc(OC)cc2)n(C)c(=O)n3C)cc1 | 0.66 µM | 3.58 µM | 0.77 µM |
| Cc1ccc(S(=O)(=O)Nc2cc3c(cc2Oc2ccccc2)n(C)c(=O)n3C)cc1F | 1.05 µM | 3.69 µM | 2.7 µM |
| Cn1c(=O)n(C)c2cc(NS(=O)(=O)c3ccc4c(c3)CCC4)ccc21 | 0.29 µM | 1.71 µM | > 10 µM |
| COc1ccc(Oc2cc3c(cc2NS(=O)(=O)c2ccccc2)n(C)c(=O)n3C)cc1 | 0.66 µM | 2.77 µM | 0.73 µM |
| Cc1ccc(S(=O)(=O)Nc2cc3c(cc2Oc2ccccc2)n(C)c(=O)n3C)cc1C | 3.1 µM | 5.16 µM | 4.77 µM |
| Cn1c(=O)n(C)c2cc(Oc3ccccc3)c(NS(=O)(=O)c3ccc4c(c3)CCCC4)cc21 | 2.68 µM | 2.67 µM | > 10 µM |
| Cc1ccc(F)cc1S(=O)(=O)Nc1cc2c(cc1Oc1ccccc1)n(C)c(=O)n2C | 0.79 µM | 2.42 µM | 3.42 µM |
| Cc1ccc(S(=O)(=O)Nc2ccc3c(c2)n(C)c(=O)n3C)cc1F | 0.59 µM | 6.14 µM | > 10 µM |
| COc1cc2c(cc1NS(=O)(=O)c1ccc(Br)cc1C)n(C)c(=O)n2C | – | 1.2 µM | – |
| COc1cccc(S(=O)(=O)Nc2cc3c(cc2Oc2ccccc2)n(C)c(=O)n3C)c1 | 0.43 µM | 1.99 µM | 2.38 µM |
| Cn1c(=O)n(C)c2cc(NS(=O)(=O)c3ccc4c(c3)CCCO4)ccc21 | 0.27 µM | 1.6 µM | 4.63 µM |
| Cn1c(=O)n(C)c2cc(NS(=O)(=O)c3ccc4c(c3)CCCC4)ccc21 | 0.33 µM | 2.05 µM | 6.17 µM |
| COc1ccc(S(=O)(=O)Nc2cc3c(cc2Oc2ccccc2)n(C)c(=O)n3C)cc1 | 0.34 µM | 1.33 µM | 0.74 µM |
| COc1ccc(Oc2cc3c(cc2NS(=O)(=O)c2ccccc2C)n(C)c(=O)n3C)cc1 | 0.68 µM | 2.38 µM | 1.47 µM |
